“Also recorded” adds a separate entry of the source.
Columns and labels:
[1] = Form risk assessment (FRA) crystallization workflow with XRPD form identification; assay type: physicochemical; details: for FRA_TC: forms from thermocycled slurrying; for Forms Found by FRA: model compounds, crystalline, used as received, * = low energy form; for FRA_EV: forms from evaporation
From the text: However, certain basic elements of the polymorph screening experiments are incorporated, such as solubility estimation, solvent-mediated form transformation, as well as super saturation adjustment by cooling, antisolvent addition, and evaporation, etc. The following procedure outlines the logical steps of performing an FRA experiment: • 1. Determine the physicochemical properties of the starting material (compound as received) • 2. Estimate the solubilities of the compound in twenty-four solvents with diverse solvent properties. • 3. Design approximately sixteen crystallization experiments with appropriate solvent systems based on the results of the solubility estimations. • 4. Prepare the crystallization samples and examine their solubilities in the sixteen solvent systems at elevated temperature. • 5. Conduct the crystallization experiment according to the designed workflow. • 6. Characterize and analyze the materials isolated from the crystallization experiments.
The solubility of the API is visually estimated by the “dynamic method” in each of the twenty-four solvents. This method is used to quickly bin the solvents into different categories, such as good solvents, poor solvents, and intermediates. The following describes the general procedure of the solubility estimation: • 1. Place weighed amounts of drug in clear glass vials to which incremental volumes (20-500 μL) of solvent are added until the solution turns clear. • 2. Apply brief vortexing after each solvent addition. • 3. Calculate the approximate visual solubility of the drug in a solvent by recording the amount of solvent required to completely dissolve the known weight of drug. The preferred unit of solubility is mg/mL.
The suspensions of the drug substance in a variety of solvent systems will be subjected to temperature-cycled slurrying, which is the primary crystallization method. Sixteen sample slurries for thermo-cycled experiments should be prepared with caution to avoid complete dissolution of the solid at elevated temperatures. For slurry with a single solvent system, the initial composition should have approximately 5-10 times higher concentration than the estimated solubility value at ambient temperature. For slurry in a solvent mixture, a suspension of the compound in the antisolvent should first be prepared and followed by the introduction of the solvent to adjust the solubility. The final antisolvent to solvent volume ratio is typically between 3 and 10. Record the amount of compound initially added and the volumes of added solvent aliquots.
Appendix 1 summarizes the typical temperature programs for each experiment. Usually three heat-cool-heat temperature cycles are used. The initial fast thermocycling runs help preliminarily assessing the dissolution behavior of the samples. The slow thermocycling runs focus on generating crystals and increasing the crystallinity and form purity.
If the sample remains a clear solution after the initial thermocycling, the solution is cooled to induce super saturation. During cooling, the original solution may become supersaturated and further reach the metastable limit when spontaneous crystallization starts. Usually the final temperature is 5° C. and the cooling rate is 0.1° C. per minute to facilitate crystal growth.
If the sample is still a clear solution at 5° C., the sample vial will be transferred into a −20° C. freezer for at least 2-3 days. The sample should be regularly examined by visual inspection and/or polarized light microscope for signs of solid formation.
The antisolvents identified during the initial solubility estimation can be used for adjusting the solubility of the drug substance in the primary solvent. The combination of a solvent with a miscible antisolvent provides a continuous solvent space, which potentially maximizes the possibility of capturing a crystalline form. […]

[2] = model compounds; * = low energy form; cited from earlier work

SMILES: CCCCCCCCCCCCCCCCCC(=O)O [Stearic acid (E), Stearic acid]
- forms identified or generated by FRA [1]: both enantiotropic polymorphs
- FRA_TC [1]: B, C
- Forms Found by FRA [1]: B*, C*
- Reported Forms in the Literature [2]: A, B*, C*, E

SMILES: COc1ccc2c(c1)c(CC(=O)O)c(C)n2C(=O)c1ccc(Cl)cc1 [Indomethacin]
- FRA_TC [1]: α, β, γ
- Forms Found by FRA [1]: α, β, γ*
- Reported Forms in the Literature [2]: α, β, γ*

SMILES: CN1C(C(=O)Nc2ccccn2)=C(O)c2ccccc2S1(=O)=O [Piroxicam]
- FRA_EV [1]: I, II
- FRA_TC [1]: I, II,; also recorded: hydrate
- Forms Found by FRA [1]: I*, II, hydrate
- Reported Forms in the Literature [2]: I*, II, III, hydrate

SMILES: O=C(c1ccccc1)c1ccc2n1CCC2C(=O)O (stereo not shown) [Ketorolac free acid]
- FRA_AS ([1]; forms from antisolvent addition): solvate
- Forms Found by FRA [1]: I*, solvate
- Reported Forms in the Literature [2]: I*, II, III, solvate

SMILES: CCNC(=O)CCC/C=C\C[C@@H]1[C@@H](/C=C/[C@@H](O)CCc2ccccc2)[C@H](O)C[C@@H]1O [bimatoprost, Bimatoprost]
- forms identified or generated by FRA [1]: capture both forms

SMILES: NC(N)=Nc1nc(CSCCC(N)=NS(N)(=O)=O)cs1 [Famotidine]
- FRA_EV [1]: A, C
- FRA_TC [1]: A, C
- Forms Found by FRA [1]: A*, B, C; also recorded: (new form)
- Reported Forms in the Literature [2]: A*, B

SMILES: O=C(O)c1cc(-c2ccc(F)cc2F)ccc1O [Diflunisal]
- FRA_EV [1]: I, IV,; also recorded: solvate
- FRA_TC [1]: I, II, III, IV

SMILES: NC(=O)N1c2ccccc2C=Cc2ccccc21 [Carbamazepine (E), Carbamazepine]
- FRA_EV [1]: γ
- FRA_TC [1]: α, β, γ
- Forms Found by FRA [1]: α*, β*, γ
- Reported Forms in the Literature [2]: α*, β*, γ,; also recorded: dihydrate, solvate

SMILES: COC(=O)Nc1nc2ccc(C(=O)c3ccccc3)cc2[nH]1 [Mebendazole]
- FRA_TC [1]: A, B, C
- Forms Found by FRA [1]: A*, B, C
- Reported Forms in the Literature [2]: A*, B, C

SMILES: Nc1ccc(S(=O)(=O)Nc2nccs2)cc1 [Sulfathiazole]
- FRA_TC [1]: I, II, III, IV
- Forms Found by FRA [1]: I, II, III*, IV*
- Reported Forms in the Literature [2]: I, II, III*, IV*, V

From US9321717B2, “Process for rapid identification and preparation of crystalline forms” (Allergan, Inc., priority 2011, dated 2016)
